Holding throughout (assay type): physicochemical
Data set [1] can be described thus: Solubility of Compound 1.
Data set [2] can be described thus: log p of Compound 1.
A short description of data set [3]: Thermal gravimetric analysis (TGA). Conditions: elevated temperatures below 200° C. As for the experimental part:
A suitable hot melt extruder (e.g. twin screw, Leistritz Nano-16 mm or Micro-18 mm) is set up with the appropriate supporting equipment, including a cooling conveyor (e.g., Domer model 220M060600D0169 or Nara TBC-309-DC) and feeder with auger (e.g., K-Tron Gravimeteric Feeder e.g., with dual flight 20 mm auger). Example processing parameters are as follows: feed rate: 2.0 kg/hr; screw speed: 250 rpm; and barrel temperature: 170, 140, 90, 50° C. or 1.0 kg/hr; screw speed: 275 rpm; and barrel temperature: 175, 140, 90, 50° C.

Bounds are passed on as bounds.

The values that follow come from patent publication US10426782B2, “Pharmaceutical formulations of a pan-RAF kinase inhibitor and processes for their preparation” (Millennium Pharmaceuticals, Inc., priority 2014, dated 2019).

For orientation: solubility means the concentration that dissolves in the medium under given conditions. Read a low solubility as a poorly soluble substance. What is called logP is a log measure of how a compound divides between an organic and an aqueous phase. `C[C@@H](NC(=O)c1ncnc(N)c1Cl)c1ncc(C(=O)Nc2cc(C(F)(F)F)c(Cl)cn2)s1` [Compound 1, (R)-2-(1-(6-amino-5-chloropyrimidine-4-carboxamido)ethyl)-N-(5-chloro-4-(trifluoromethyl)pyridin-2-yl)thiazole-5-carboxamide] registered a solubility in data set [1] of under 1000 µg/mL. In data set [2], this compound registered a logP of 3.63. Also, the “thermal stability by TGA” value in data set [3] is on record as “relatively stable”.
